{"source": "paper PMC11969031", "about": "“The homeostasis of β‐alanine is key for Arabidopsis reproductive growth and development” (The Plant Journal, 2025)", "key": {"[1]": {"molecular_target": "T1, Col-0-PYD4 (AT3G08860, recombinant) (Arabidopsis thaliana, UniProt Q9SR86)", "T1 construct": "first 31 residues (signal peptide) removed; codon-optimised synthetic gene, pET24a, C-terminal His6; E. coli BL21(DE3); Ni-NTA", "T1 sequence (Q9SR86 32-481)": "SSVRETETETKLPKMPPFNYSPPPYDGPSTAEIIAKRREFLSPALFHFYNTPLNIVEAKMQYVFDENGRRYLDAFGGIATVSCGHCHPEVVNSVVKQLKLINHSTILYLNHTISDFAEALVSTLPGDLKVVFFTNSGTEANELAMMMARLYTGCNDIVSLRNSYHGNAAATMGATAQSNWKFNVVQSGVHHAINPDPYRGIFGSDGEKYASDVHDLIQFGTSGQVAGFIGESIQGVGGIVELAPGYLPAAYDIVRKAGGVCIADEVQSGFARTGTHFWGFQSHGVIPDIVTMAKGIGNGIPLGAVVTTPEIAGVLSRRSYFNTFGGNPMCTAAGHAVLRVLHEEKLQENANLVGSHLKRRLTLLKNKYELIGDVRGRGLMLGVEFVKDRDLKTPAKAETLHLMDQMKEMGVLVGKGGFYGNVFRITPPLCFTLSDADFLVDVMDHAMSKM", "test": "coupled NADH assay at […] nm (pyruvate or alanine dehydrogenase)", "assay_type": "biochemical", "conditions": "50 mM Tris pH 8.0, 30°C"}, "[2]": {"molecular_target": "T2, AGT2_weak (AT4G39660, recombinant) (Arabidopsis thaliana, UniProt Q940M2)", "T2 construct": "gene AGT2; first 29 residues (signal peptide) of 476 removed; codon-optimised synthetic gene, pET24a, C-terminal His6; E. coli BL21(DE3); Ni-NTA", "T2 sequence (Q940M2 30-476)": "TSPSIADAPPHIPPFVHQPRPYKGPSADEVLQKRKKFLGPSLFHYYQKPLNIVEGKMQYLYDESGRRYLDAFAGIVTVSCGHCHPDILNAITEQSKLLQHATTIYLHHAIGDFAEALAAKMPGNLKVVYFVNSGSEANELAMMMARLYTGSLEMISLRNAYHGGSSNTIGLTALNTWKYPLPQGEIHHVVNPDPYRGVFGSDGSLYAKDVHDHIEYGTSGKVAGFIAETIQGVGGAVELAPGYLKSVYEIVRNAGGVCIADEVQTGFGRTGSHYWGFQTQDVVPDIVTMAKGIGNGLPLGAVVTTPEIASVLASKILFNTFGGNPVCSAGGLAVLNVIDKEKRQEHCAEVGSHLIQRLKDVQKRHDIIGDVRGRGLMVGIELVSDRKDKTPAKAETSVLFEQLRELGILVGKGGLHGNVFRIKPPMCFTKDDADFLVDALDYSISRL", "test": "coupled NADH assay at […] nm (pyruvate dehydrogenase)", "assay_type": "biochemical", "conditions": "amino donor; 50 μM glyoxylate/2-oxoglutarate/pyruvate, 3 μM enzyme, 50 mM Tris pH 8.0, 30°C; degradation direction only"}}}
{"smiles": "C[C@H](N)C(=O)O", "note": "[L‐alanine]", "values": [{"measurement": "coupled NADH assay at 340 nm (pyruvate or alanine dehydrogenase)", "setting": "[1]; amino donor (positive control enzyme; works in both directions)", "value": "activity when L‐alanine was used as the amino donor, but unlike PYD4, AGT2 only functions"}, {"measurement": "coupled NADH assay at 340 nm (pyruvate dehydrogenase)", "setting": "[2]", "value": "We also detected activity when L‐alanine was used as the amino donor"}]}
{"smiles": "NCCC(=O)O", "note": "[β‐alanine]", "values": [{"measurement": "coupled NADH assay at 340 nm (pyruvate or alanine dehydrogenase)", "setting": "[1]; amino donor, acceptor not given", "value": "PYD4 was also able to use β‐alanine as an amino donor"}]}
